Experimental data reported in publication PMC6010093, “α-Glucosidase inhibitory activity and cytotoxic effects of some cyclic urea and carbamate derivatives” (Journal of Enzyme Inhibition and Medicinal Chemistry, 2017).
“Also recorded” adds a separate entry of the source.

What was measured:
[1] = test system: HeLa, cervix adenocarcinoma cell line; assay: MTT cytotoxicity assay, HeLa; assay type: cell-based; conditions: Homo sapiens, 72 h exposure, mean ± standard deviation
[2] = test system: A549, non-small cell lung carcinoma cell line; assay: MTT cytotoxicity assay, A549; assay type: cell-based; conditions: Homo sapiens, 72 h exposure, mean ± standard deviation
[3] = test system: MDA-MB-453 human breast cancer cell line; assay: MTT cytotoxicity assay, MDA-MB-453; assay type: cell-based; conditions: 72 h exposure, mean ± standard deviation
HeLa cells = assay: Morphological evaluation of cell death (acridine orange/ethidium bromide staining, fluorescence microscope); assay type: cell-based, human
Protocol: After 24 h of seeding 80 000 HeLa cells per well, they were treated with compound dilutions of IC50 and 2 × IC50 in control only nutrient medium was added. After another 24 h of incubation cells were stained with acridine orange AO and ethidium bromide EB (3 μg/mLAO +10 μg/mL EB in PBS), then visualized under a fluorescence microscope (Carl Zeiss, Oberkochen, Germany) PALM MicroBeam with Axio Observer.Z1 using AxioCam MRm (filters Alexa 488 and 568), as described in literature.
Morphological changes were observed after cells were stained with acridine orange and ethidium-bromide. Acridine orange can penetrate into the living cells and emits green fluorescence, while ethidium-bromide enters the cells after cell membrane damage and emits red fluorescence. […] Observed control cells are with unchanged morphology, stained green.

[4] = 24 h treatment with 2 × IC50 concentration of compound
[5] = 24 h treatment with IC50 dilution of compound

| Compound | IC50 [1] [µM] | IC50 [2] [µM] | IC50 [3] [µM] | Morphological changes of HeLa cells (cell death type) (HeLa cells; [4]) | Morphological changes of HeLa cells (cell death type) (HeLa cells; [5]) |
| --- | --- | --- | --- | --- | --- |
| CC(C)(C)OC(=O)N1CCC(NC(=O)OCc2ccccc2)CC1 [Compound 8] | 158 ± 6.04 | 155.8 ± 0.7 | 112 ± 4.91 | necrotic changes | late apoptotic signs; also recorded: apoptosis occurred |
| COC(=O)Nc1cc(OC)c(OC)c(OC)c1 [Compound 11] | 194.4 ± 1.44 | 200 ± 2.37 | 164 ± 3.93 | necrotic changes | late apoptotic signs; also recorded: apoptosis occurred |
| COc1cc(NC(=O)OCc2ccccc2)cc(OC)c1OC [Compound 12, benzyl (3,4,5-trimethoxyphenyl)carbamate] | 139 ± 8.28 | 180 ± 2.57 | 108 ± 4.95 | necrotic changes | late apoptotic signs; also recorded: apoptosis occurred |
